The source of these data is patent US10836742B2, “N-substituted bicyclic lactams, their preparation and their use as pharmaceuticals” (NEOMED Institute, priority 2015, dated 2020).

In assay [1] the test system is human C-Myc gene transcription in MV-4-11 cells. In words: Transcription of human C-Myc in human leukemic MV-4-11 cells (QuantiGene 2.0). Format: cell-based. The following applies: inhibition of C-Myc mRNA transcription, 4 hours treatment. The procedure: b) Transcription of Human C-Myc in Human Leukemic MV-4-11 Cells:
The effect of compounds on transcription of human C-Myc gene is monitored in human B-myelomonocytic leukemia cell line MV-4-11 (from American Type Culture Collection (ATCC), Manassas, Va., USA) using QuantiGene 2.0 assay kit (Affymetrix, Santa Clara, Calif., USA).
Typically, 8,000 MV-4-11 cells are plated in sterile 96-well plates (Costar #3598 from Fisher Scientific Canada, Ottawa, Ontario, Canada) in Iscove's medium supplemented with 10% fetal bovine serum, glutamine (2 mM), and penicillin (100 I.U.) and streptomycin (100 μg/mL) (all from Wisent Inc., St. Bruno, Quebec, Canada). Compounds are dissolved in DMSO at 30 mM. A series of 1:3 dilutions are first made in DMSO, and further 1:100 dilutions are made in serum-containing cell culture media. The final concentration of DMSO is 0.1% in cell culture media. After cells are treated with various concentrations of test compound for 4 hours, cells are lysed using Quantigene 2.0 sample processing kit (#QS0100). C-Myc mRNA is detected using a QuantiGene 2.0 assay kit (#QS0009) with gene-specific probe to human C-Myc (#SA-50182) following the manufacturer's recommendations. Luminescene signals are read on Flexstation II microplate reader (Molecular Devices, Sunnyvale, Calif., USA).

Assay [2] deals with BRD4(BD1) (Homo sapiens (Human), UniProt O60885). Kind of assay: In vitro bromodomain inhibition assay (AlphaLISA, H4-tetraacetyl peptide). The following applies: His-tagged BRD4 BD1 200 nM, biotinylated H4-tetraacetyl peptide 200 nM. Format: binding. The procedure:
a) In vitro Bromodomain Inhibition Assay
To measure activity of bromodomain inhibitors, a His-epitope tagged BRD4 BD149-170 is purchased from BPS Bioscience. BRD4 binding and inhibition is assessed by monitoring the engagement of biotinylated H4-tetraacetyl peptide (H4K5/8/12/16; AnaSpec #64989-025) with the target using the AlphaLISA technology (Perkin-Elmer). Specifically, in a 384 well OptiPlate, BRD4(BD1) (200 nM final) is pre-incubated with either DMSO (final 1.0% DMSO) or a compound dilution series in DMSO. All reagents are diluted in assay buffer containing 50 mM HEPES (pH 7.4), 100 mM NaCl, 0.1% (w/v) BSA, and 0.05% (w/v) CHAPS. After a 30 minute incubation at room temperature, H4 peptide is added (200 nM final) and the reaction is incubated an additional 30 minutes at room temperature. Alpha streptavidin donor beads and AlphaLISA nickel chelate acceptor beads are then added to a final concentration of 10 μg/mL each. After one hour, equilibration plates are read on an Envision instrument and IC50s calculated using a four parameter non-linear curve fit (results are shown in Table 2).
Background: In Alpha technology, singlet oxygen from a donor bead excites a nearby acceptor bead.

On to `COc1cc2c(cc1-c1cc(C)c(=O)n(C)c1)CCC(=O)N2C(C)c1ccccc1` (stereo not shown) [Compound 2, 6-(1,5-dimethyl-6-oxo-3-pyridyl)-7-methoxy-1-(1-phenylethyl)-3,4-dihydroquinolin-2-one], for which, in assay [1], the IC50 (commonly the concentration needed to halve the response being measured) worked out at 830 nM. This lies in the sub-micromolar range.
Regarding `Cc1cc(-c2ccc3c(c2)N(CC2CCCCO2)C(=O)CC3)cn(C)c1=O` (single isomer, unassigned) [Compound 15, 7-(1,5-dimethyl-6-oxo-3-pyridyl)-1-(tetrahydropyran-2-ylmethyl)-3,4-dihydroquinolin-2-one], the concentration for half-maximal inhibition (IC50) was 600 nM in assay [1] and 1530 nM in assay [2].
Consider `Cc1cc(-c2ccc3c(c2)N(Cc2ccccc2)C(=O)CO3)cn(C)c1=O` [Compound 17, 4-benzyl-6-(1,5-dimethyl-6-oxo-3-pyridyl)-1,4-benzoxazin-3-one], for which the IC50 in assay [1] (Homo sapiens, MV4-11, 4 h) came to 96 nM; in assay [2], 460 nM.
Taken in the same sequence, the figures for `COc1cc(-c2cc(C)c(=O)n(C)c2)cc2c1N(Cc1ccccc1)C(=O)CC2` [Compound 6, 1-benzyl-6-(1,5-dimethyl-6-oxo-1,6-dihydropyridin-3-yl)-8-methoxy-3,4-dihydroquinolin-2(1H)-one] were 780 nM and 2580 nM.
For `Cc1cc(-c2ccc3c(c2)N(Cc2ccccc2)C(=O)CC3)cn(C)c1=O` [Compound 7, 1-benzyl-7-(1,5-dimethyl-6-oxo-3-pyridyl)-3,4-dihydroquinolin-2-one], in that order: 260 nM and 740 nM.
Taken in the same sequence, the figures for `Cc1cc(-c2ccc3c(c2)N(Cc2ccccn2)C(=O)CO3)cn(C)c1=O` [Compound 18, 6-(1,5-dimethyl-6-oxo-3-pyridyl)-4-(2-pyridylmethyl)-1,4-benzoxazin-3-one] were 860 nM and 580 nM.
`COc1cc2c(cc1-c1cc(C)c(=O)n(C)c1)CCC(=O)N2C(C)c1ccccc1` (stereo not shown) [Compound 1, 6-(1,5-dimethyl-6-oxo-3-pyridyl)-7-methoxy-1-(1-phenylethyl)-3,4-dihydroquinolin-2-one] returned an IC50 in assay [1] (Homo sapiens, MV4-11, 4 h) of 550 nM.
With `Cc1cc(-c2ccc3c(c2)N(CC2CCCCO2)C(=O)CC3)cn(C)c1=O` (single isomer, unassigned) [Compound 14, 7-(1,5-dimethyl-6-oxo-3-pyridyl)-1-(tetrahydropyran-2-ylmethyl)-3,4-dihydroquinolin-2-one], the IC50 in assay [1] (Homo sapiens, MV4-11, 4 h) worked out at 590 nM; in assay [2], 3670 nM.
Compound `COc1cc2c(cc1-c1cc(C)c(=O)n(C)c1)CCC(=O)N2C(C)c1ccccn1` (stereo not shown) [Compound 4, 6-(1,5-dimethyl-6-oxo-3-pyridyl)-7-methoxy-1-[1-(2-pyridyl)ethyl]-3,4-dihydroquinolin-2-one] registered an IC50 in assay [1] of 830 nM.
Take `Cc1cc(-c2ccc3c(c2)N(CCOC(F)(F)F)C(=O)CO3)cn(C)c1=O` [Compound 20, 6-(1,5-dimethyl-6-oxo-3-pyridyl)-4-[2-(trifluoromethoxy)ethyl]-1,4-benzoxazin-3-one]: the IC50 in assay [1] (Homo sapiens, MV4-11, 4 h) came to 500 nM; in assay [2], 880 nM.
Consider `Cc1cc(-c2ccc3c(c2)N(CC2CC(F)(F)C2)C(=O)CC3)cn(C)c1=O` [Compound 11, 1-[(3,3-difluorocyclobutyl)methyl]-7-(1,5-dimethyl-6-oxo-3-pyridyl)-3,4-di hydroquinolin-2-one], for which the IC50 in assay [1] (Homo sapiens, MV4-11, 4 h) came to 870 nM; in assay [2], 860 nM.
As to `Cc1cc(-c2ccc3c(c2)N(C(C)c2ccccc2)C(=O)CC3)cn(C)c1=O` (single isomer, unassigned) [Compound 13, 7-(1,5-dimethyl-6-oxo-3-pyridyl)-1-(1-phenylethyl)-3,4-dihydroquinolin-2-one], the concentration for half-maximal inhibition (IC50) amounted to 160 nM in assay [1] and 320 nM in assay [2].
Turning to `Cc1cc(-c2ccc3c(c2)N(CC2CC(F)(F)C2)C(=O)CO3)cn(C)c1=O` [Compound 19, 4-[(3,3-difluorocyclobutyl)methyl]-6-(1,5-dimethyl-6-oxo-3-pyridyl)-1,4-benzoxazin-3-one], the IC50 in assay [1] (Homo sapiens, MV4-11, 4 h) is 750 nM; in assay [2] it was 810 nM.
On to `Cc1cc(-c2cc(C)c(=O)n(C)c2)cc2c1N(Cc1ccccc1)C(=O)CC2` [Compound 21, 1-Benzyl-6-(1,5-dimethyl-6-oxo-1,6-dihydropyridin-3-yl)-8-methyl-3,4-dihydroquinolin-2(1H)-one], for which inhibition in assay [1] (Homo sapiens, MV4-11, 4 h) was half-maximal at 810 nM (IC50). In other words, the sub-micromolar range.
`Cc1cc(-c2ccc3c(c2)CCC(=O)N3Cc2ccccc2)cn(C)c1=O` [Compound 5, 1-benzyl-6-(1,5-dimethyl-6-oxo-3-pyridyl)-3,4-dihydroquinolin-2-one] yielded an IC50 in assay [1] (Homo sapiens, MV4-11, 4 h) of 840 nM.
Regarding `Cc1cc(-c2ccc3c(c2)N(CCOC(F)(F)F)C(=O)CC3)cn(C)c1=O` [Compound 8, 7-(1,5-dimethyl-6-oxo-3-pyridyl)-1-[2-(trifluoromethoxy)ethyl]-3,4-dihydroquinolin-2-one], the IC50 in assay [1] (Homo sapiens, MV4-11, 4 h) came out at 820 nM; in assay [2], 940 nM.
Take `Cc1cc(-c2ccc3c(c2)N(Cc2ccccn2)C(=O)CC3)cn(C)c1=O` [Compound 10, 7-(1,5-dimethyl-6-oxo-3-pyridyl)-1-(2-pyridylmethyl)-3,4-dihydroquinolin-2-one]: the IC50 in assay [1] (Homo sapiens, MV4-11, 4 h) was 540 nM; in assay [2], 420 nM.
Take `Cc1cc(-c2ccc3c(c2)N(C(C)c2ccccc2)C(=O)CC3)cn(C)c1=O` (single isomer, unassigned) [Compound 12, 7-(1,5-dimethyl-6-oxo-3-pyridyl)-1-(1-phenylethyl)-3,4-dihydroquinolin-2-one]: the IC50 in assay [1] came out at 900 nM; in assay [2], 910 nM.
For the compound `COc1cc2c(cc1-c1cc(C)c(=O)n(C)c1)CCC(=O)N2C(C)c1ccccn1` (stereo not shown) [Compound 3, 6-(1,5-dimethyl-6-oxo-3-pyridyl)-7-methoxy-1-[1-(2-pyridyl)ethyl]-3,4-dihydroquinolin-2-one], in assay [1] (Homo sapiens, MV4-11, 4 h), the IC50 was found to be 900 nM.
Same read-out and setting: then `Cc1cc(-c2cc(Cl)c3c(c2)CCC(=O)N3Cc2ccccc2)cn(C)c1=O` [Compound 22, 1-benzyl-8-chloro-6-(1,5-dimethyl-6-oxo-1,6-dihydropyridin-3-yl)-3,4-dihydroquinolin-2(1H)-one], with 840 nM.
As for `Cc1cc(-c2ccc3c(c2)OCC(=O)N3Cc2ccccc2)cn(C)c1=O` [Compound 16, 4-benzyl-7-(1,5-dimethyl-6-oxo-3-pyridyl)-1,4-benzoxazin-3-one], the IC50 in assay [1] (Homo sapiens, MV4-11, 4 h) worked out at 600 nM; in assay [2], 1580 nM.
Taken in the same sequence, the figures for `Cc1cc(-c2ccc3c(c2)N(Cc2ccc(F)cc2)C(=O)CC3)cn(C)c1=O` [Compound 9, 7-(1,5-dimethyl-6-oxo-3-pyridyl)-1-[(4-fluorophenyl)methyl]-3,4-dihydro-quinolin-2-one] were 570 nM and 700 nM.
